The results in this text go back to patent publication US20180353521A1, “METHOD FOR TREATING STROKE OR REDUCING NERVE INJURY” (priority 2017, published 2018).

The nature of experiment [1]: Weight analysis in MCAO/reperfusion model. The settings on record: 24 hours after MCAO surgery, 50 mg/kg; for body weight, AVG, 24 hr: average value; for retardation in body weight decrease vs vehicle control group: FIG. 5.
Excerpt: Test animals (250-350 g of male SD rats in this example) were anesthetized with 2% isoflurane in N2O/O2 (70%/30%). The right common carotid artery (right CCA), external carotid artery (ECA), and internal carotid artery (ICA) were isolated.
Cutting along the midline of the scalp, the nylon monofilament (the front of the nylon monofilament was covered with polysiloxane) was inserted through the external carotid artery along the internal carotid artery and extending to circle of Willis of the brain, resulting in obstruction of the middle cerebral artery. After an hour of ischemia, the nylon monofilament was removed and the brain's blood was reperfused.
The above-mentioned prevention model experiment further comprised a blank control group (sham) which were undergone no MCAO surgery and administered without the compound; and a vehicle control group (Vehicle) which was undergone MCAO surgery and administered with water in place of the compound.
The subject of experiment [2] is Middle Cerebral Artery Occlusion, MCAO/Reperfusion Model (ischemic stroke). Description: Neurobehavioral assessment after MCAO surgery. To be noted: 50 mg/kg given 10 minutes before MCAO, 24 hours after MCAO surgery, Student's T test vs Vehicle, FIG. 3.
Experiment [3] has the same test system. Description: Analysis of brain infarct region (TTC staining) after MCAO. The class given is in vivo, male SD rats. To be noted: 50 mg/kg given 10 minutes before MCAO; for reduction of brain infarct volume vs vehicle control group: Student's T test; for reduction of infarct size at positions from the front end of the brain: brain taken 24 hours after MCAO, 2 mm slices, FIG. 4B.

“Also recorded” adds a separate entry of the source.

As to `C=C(CC[C@@H](C(=O)O)[C@H]1CC[C@@]2(C)C3=CC[C@H]4C(C)(C)[C@@H](O)CC[C@]4(C)C3=CC[C@]12C)C(C)C` [AR-04-41S, dehydroeburicoic acid], the “body weight, AVG, 24 hr” value in experiment [1] stood at 266.5. The figures for the “nerve injury (neurobehavioral assessment score) vs Vehicle” value (from here on “nerve injury … vs Vehicle”) in experiment [2] and in experiment [2] (listed as AR-04-415) were “statistically significant in efficacy; also recorded: statistically significant effect in reducing nerve injury” and “recovery tendency”, respectively. Moreover, the “total infarct volume (%) of the brain” value in experiment [3] (24 hours after MCAO, FIG. 4C) was “less than 10%”. Further, the “reduction of brain infarct volume vs vehicle control group” value (“reduction of brain infarct volume” below) in experiment [3] (24 hours after MCAO, FIG. 4C) is “statistically significant effect in reducing the brain infarct volume”; in experiment [3] (24 hours after MCAO, FIG. 4C, listed as AR-04-415), “best effect on reducing the infarct volume”. For the same molecule, the “reduction of infarct size at positions from the front end of the brain” value (shortened to “reduction of infarct size at positions”) in experiment [3] is “significant effect in reducing the infarct size at 3 mm, 7 mm, 9 mm, 11 mm, and 13 mm; also recorded: better efficacy at 7 mm”.

Consider `C=C(CC[C@@H](C(=O)O)[C@H]1C[C@H](O)[C@@]2(C)C3=CC[C@H]4C(C)(C)[C@@H](O)CC[C@]4(C)C3=CC[C@]12C)C(C)C` [AR-04-1822S, dehydrosulphurenic acid (dehydrosulfurenic acid)], for which the “retardation in body weight decrease vs vehicle control group” value in experiment [1] is listed as “significant retardation in body weight decrease”. Also, the “body weight, AVG, 24 hr” value in experiment [1] stood at 270.0. Moreover, the “nerve injury … vs Vehicle” value in experiment [2] was “statistically significant in efficacy”; in experiment [2] (listed as AR-04-18225), “recovery tendency; also recorded: statistically significant effect in reducing nerve injury”. In addition, the “reduction of brain infarct volume” value in experiment [3] (24 hours after MCAO, FIG. 4C) is listed as “significant effects in reducing the infarct”; in experiment [3] (24 hours after MCAO, FIG. 4C, listed as AR-04-18225) it was “statistically significant effect in reducing the brain infarct volume”. Further, in experiment [3] (listed as AR-04-18225), the “reduction of infarct size at positions” value was “significant effect in reducing the infarct size at 3 mm, 5 mm, 7 mm, 9 mm, 11 mm, and 13 mm; also recorded: significantly better effect in reducing the infarct size at 7 mm and 9 mm”.

With `COc1cc(C)c(OC)c2c1OCO2` [AR-04-15S, 4,7-Dimethoxy-5-methyl-1,3-benzodioxole], in experiment [1], the “retardation in body weight decrease vs vehicle control group” value is given as “significant retardation in body weight decrease” and the “body weight, AVG, 24 hr” value is reported as 243.2. Also, in experiment [2] (listed as AR-04-155), the “nerve injury … vs Vehicle” value is recorded as “recovery tendency; also recorded: significant effects in reducing nerve injury”. Also, in experiment [3] (24 hours after MCAO, FIG. 4C, listed as AR-04-155), the “reduction of brain infarct volume” value is recorded as “significant effects in reducing the infarct; also recorded: statistically significant effect in reducing the brain infarct volume”. Also, the “reduction of infarct size at positions” value in experiment [3] is “significant effect in reducing the infarct size at 7 mm, 9 mm and 11 mm”.
